The text below walks through data of PMC8403869 (Proceedings of the National Academy of Sciences of the …, 2021).

Assay [1] addresses T1, human ABCG5-ABCG8 heterodimer (G5G8) (Homo sapiens, UniProt Q9H221+Q9H222).
T1 construct: heterodimer; HEK-293S GnTI- or Pichia pastoris
T1 sequence (Q9H222 1-651): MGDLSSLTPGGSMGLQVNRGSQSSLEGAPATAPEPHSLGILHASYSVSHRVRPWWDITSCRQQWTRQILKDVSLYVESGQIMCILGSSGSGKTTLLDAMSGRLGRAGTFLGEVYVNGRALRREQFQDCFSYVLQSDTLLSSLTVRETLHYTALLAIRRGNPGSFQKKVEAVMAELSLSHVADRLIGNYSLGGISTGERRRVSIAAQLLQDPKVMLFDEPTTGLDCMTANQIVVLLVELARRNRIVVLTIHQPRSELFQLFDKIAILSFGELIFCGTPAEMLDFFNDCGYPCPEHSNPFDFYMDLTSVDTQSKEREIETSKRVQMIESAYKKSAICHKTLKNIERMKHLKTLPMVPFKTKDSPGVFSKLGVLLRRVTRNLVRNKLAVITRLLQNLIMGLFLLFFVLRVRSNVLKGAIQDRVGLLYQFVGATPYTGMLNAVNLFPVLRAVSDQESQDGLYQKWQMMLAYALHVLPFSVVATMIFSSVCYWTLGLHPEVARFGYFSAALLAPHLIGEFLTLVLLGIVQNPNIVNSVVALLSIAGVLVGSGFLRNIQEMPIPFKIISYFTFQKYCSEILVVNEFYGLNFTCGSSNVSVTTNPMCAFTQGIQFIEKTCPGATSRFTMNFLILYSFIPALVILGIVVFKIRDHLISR
T1 sequence (Q9H221 1-673): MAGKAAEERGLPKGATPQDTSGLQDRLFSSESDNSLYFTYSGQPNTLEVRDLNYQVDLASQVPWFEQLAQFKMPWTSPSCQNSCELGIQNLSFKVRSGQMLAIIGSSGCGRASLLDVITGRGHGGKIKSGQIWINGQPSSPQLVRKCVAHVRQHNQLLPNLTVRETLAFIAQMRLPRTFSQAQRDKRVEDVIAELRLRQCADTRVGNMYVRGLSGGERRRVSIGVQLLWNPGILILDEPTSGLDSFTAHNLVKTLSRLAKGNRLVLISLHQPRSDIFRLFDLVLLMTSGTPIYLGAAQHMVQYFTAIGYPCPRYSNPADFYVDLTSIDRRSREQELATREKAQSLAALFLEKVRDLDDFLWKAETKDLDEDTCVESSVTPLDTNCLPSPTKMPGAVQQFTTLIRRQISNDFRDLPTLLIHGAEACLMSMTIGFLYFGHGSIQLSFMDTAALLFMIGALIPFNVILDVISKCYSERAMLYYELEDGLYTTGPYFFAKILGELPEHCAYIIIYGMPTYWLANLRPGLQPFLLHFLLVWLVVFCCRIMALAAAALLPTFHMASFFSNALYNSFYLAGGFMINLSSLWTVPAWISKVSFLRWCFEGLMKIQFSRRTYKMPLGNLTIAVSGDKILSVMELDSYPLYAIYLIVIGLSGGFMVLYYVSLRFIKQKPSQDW
Kind of assay: […]phosphate release ATPase assay. The format is biochemical. Conditions: 2.5 mM gamma-[32P]ATP (labelled compound), 2.5 mM MgCl2, liver polar lipids, 1% sodium cholate, pH 7.5, 37 °C.

Assay [2] addresses T2, human ABCG1 (G1) (Homo sapiens, UniProt P45844).
T2 construct: full-length cDNA, N-terminal Flag tag; homodimer; WT from Sf9, E242Q from HEK-293S GnTI-; LMNG then digitonin
Put plainly: NADH-coupled ATPase stimulation. It is filed as biochemical. The settings on record: 0.25 mM cholesterol, 0.5-20 mM ATP, 2 mM MgCl2, pH 7.5, 37 °C.

The structures appear in SMILES notation.

On to `Nc1ncnc2c1ncn2[C@@H]1O[C@H](COP(=O)(O)OP(=O)(O)OP(=O)(O)O)[C@@H](O)[C@H]1O` [ATP], for which, in assay [1], the “[32P]phosphate release ATPase assay” value is “The ATPase activity of purified G5G8 was determined as described”. In the case of `CC(C)CCC[C@@H](C)[C@H]1CC[C@H]2[C@@H]3CC=C4C[C@@H](O)CC[C@]4(C)[C@H]3CC[C@]12C` [cholesterol], the ATPase stimulation result in assay [2] is “ATPase activity was stimulated by cholesterol but not its diastereomer, epi-cholesterol”.
